Assay results taken from ChEMBL document CHEMBL1142358, “3-amino-benzo[d]isoxazoles as novel multitargeted inhibitors of receptor tyrosine kinases” (J Med Chem, 2008).
The source made the active and inactive calls. The calls are words filed in the database; no cut-off is given here.

Columns and labels:
[1] = biological target: Mast/stem cell growth factor receptor Kit (Homo sapiens, UniProt P10721); assay: Inhibition of KIT by HTRF assay
[2] = biological target: Vascular endothelial growth factor receptor 2 (Homo sapiens, UniProt P35968)
Vascular endothelial growth factor receptor 2, sequence (P35968 whole entry): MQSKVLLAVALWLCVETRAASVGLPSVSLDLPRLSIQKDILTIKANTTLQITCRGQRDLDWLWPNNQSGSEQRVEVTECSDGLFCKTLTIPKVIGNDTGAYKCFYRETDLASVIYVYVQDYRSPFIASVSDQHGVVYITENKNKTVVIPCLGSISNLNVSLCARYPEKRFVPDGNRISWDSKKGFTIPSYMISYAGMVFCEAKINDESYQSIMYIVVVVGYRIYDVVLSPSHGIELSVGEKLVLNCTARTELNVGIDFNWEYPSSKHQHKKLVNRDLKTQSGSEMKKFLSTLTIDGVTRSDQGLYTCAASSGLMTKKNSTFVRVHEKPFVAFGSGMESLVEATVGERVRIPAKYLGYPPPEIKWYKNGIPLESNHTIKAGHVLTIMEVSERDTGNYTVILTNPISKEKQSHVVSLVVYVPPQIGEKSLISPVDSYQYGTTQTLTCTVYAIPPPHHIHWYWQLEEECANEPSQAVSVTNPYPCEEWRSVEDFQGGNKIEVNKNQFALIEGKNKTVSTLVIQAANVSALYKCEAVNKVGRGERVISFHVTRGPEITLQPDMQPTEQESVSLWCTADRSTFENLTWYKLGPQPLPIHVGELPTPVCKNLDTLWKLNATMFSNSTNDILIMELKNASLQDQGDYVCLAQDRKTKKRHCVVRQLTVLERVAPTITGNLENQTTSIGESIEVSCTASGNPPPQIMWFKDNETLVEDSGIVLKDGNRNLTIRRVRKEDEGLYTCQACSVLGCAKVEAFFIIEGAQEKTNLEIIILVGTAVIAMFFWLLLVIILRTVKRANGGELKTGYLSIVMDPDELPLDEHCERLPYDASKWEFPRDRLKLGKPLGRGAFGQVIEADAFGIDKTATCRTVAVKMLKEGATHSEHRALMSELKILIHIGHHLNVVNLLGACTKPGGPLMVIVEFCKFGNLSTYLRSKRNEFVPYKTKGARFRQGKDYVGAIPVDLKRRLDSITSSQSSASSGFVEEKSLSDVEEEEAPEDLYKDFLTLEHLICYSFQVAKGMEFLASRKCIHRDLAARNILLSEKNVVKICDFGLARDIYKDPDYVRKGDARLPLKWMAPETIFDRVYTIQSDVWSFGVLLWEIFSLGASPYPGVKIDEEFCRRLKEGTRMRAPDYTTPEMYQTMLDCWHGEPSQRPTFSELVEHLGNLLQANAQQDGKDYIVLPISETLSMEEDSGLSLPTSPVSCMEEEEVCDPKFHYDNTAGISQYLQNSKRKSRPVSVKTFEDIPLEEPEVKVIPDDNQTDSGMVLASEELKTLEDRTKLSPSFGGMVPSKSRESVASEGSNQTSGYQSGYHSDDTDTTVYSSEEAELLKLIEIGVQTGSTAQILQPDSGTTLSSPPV
Description: Inhibition of KDR by HTRF assay

[3] = biological target: T1, Receptor-type tyrosine-protein kinase FLT3 (Homo sapiens, UniProt P36888)
T1 sequence (P36888 whole entry): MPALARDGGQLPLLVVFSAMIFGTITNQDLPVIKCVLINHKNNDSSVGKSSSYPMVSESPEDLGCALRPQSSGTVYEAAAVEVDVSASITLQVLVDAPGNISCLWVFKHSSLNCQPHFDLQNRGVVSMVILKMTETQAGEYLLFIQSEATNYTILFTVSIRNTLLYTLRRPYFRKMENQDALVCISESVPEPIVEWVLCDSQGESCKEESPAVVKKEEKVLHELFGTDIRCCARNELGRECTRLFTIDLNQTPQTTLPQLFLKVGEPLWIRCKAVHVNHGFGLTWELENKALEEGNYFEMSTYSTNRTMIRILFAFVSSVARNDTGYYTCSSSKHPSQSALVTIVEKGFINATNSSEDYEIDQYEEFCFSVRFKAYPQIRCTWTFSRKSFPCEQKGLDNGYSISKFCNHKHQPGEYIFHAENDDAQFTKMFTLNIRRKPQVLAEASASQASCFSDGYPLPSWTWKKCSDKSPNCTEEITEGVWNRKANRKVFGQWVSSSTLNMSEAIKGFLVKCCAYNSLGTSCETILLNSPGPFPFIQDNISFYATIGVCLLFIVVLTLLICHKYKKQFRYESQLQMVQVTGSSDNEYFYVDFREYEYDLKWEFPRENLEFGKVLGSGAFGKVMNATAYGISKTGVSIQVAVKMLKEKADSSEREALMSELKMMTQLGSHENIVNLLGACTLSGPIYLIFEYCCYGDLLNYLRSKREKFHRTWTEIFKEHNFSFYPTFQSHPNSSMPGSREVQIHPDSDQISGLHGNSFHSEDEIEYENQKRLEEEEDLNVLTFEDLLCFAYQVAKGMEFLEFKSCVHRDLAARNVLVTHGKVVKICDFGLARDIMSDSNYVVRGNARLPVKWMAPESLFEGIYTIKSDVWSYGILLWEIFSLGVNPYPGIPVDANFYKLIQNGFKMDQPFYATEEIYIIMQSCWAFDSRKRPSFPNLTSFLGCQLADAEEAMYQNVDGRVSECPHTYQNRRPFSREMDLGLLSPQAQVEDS
Description: Inhibition of FLT3 by HTRF assay

[4] = biological target: Platelet-derived growth factor receptor beta (Homo sapiens, UniProt P09619); assay: Inhibition of PDGFRbeta by HTRF assay
[5] = biological target: Angiopoietin-1 receptor (Homo sapiens, UniProt Q02763); assay: Inhibition of TIE2 by HTRF assay
[6] = biological target: Tyrosine-protein kinase HCK (Homo sapiens, UniProt P08631); assay: Inhibition of HCK by HTRF assay
[7] = biological target: Proto-oncogene tyrosine-protein kinase Src (Homo sapiens, UniProt P12931); assay: Inhibition of SRC by HTRF assay
Proto-oncogene tyrosine-protein kinase Src, sequence (P12931 2-536 limits assumed): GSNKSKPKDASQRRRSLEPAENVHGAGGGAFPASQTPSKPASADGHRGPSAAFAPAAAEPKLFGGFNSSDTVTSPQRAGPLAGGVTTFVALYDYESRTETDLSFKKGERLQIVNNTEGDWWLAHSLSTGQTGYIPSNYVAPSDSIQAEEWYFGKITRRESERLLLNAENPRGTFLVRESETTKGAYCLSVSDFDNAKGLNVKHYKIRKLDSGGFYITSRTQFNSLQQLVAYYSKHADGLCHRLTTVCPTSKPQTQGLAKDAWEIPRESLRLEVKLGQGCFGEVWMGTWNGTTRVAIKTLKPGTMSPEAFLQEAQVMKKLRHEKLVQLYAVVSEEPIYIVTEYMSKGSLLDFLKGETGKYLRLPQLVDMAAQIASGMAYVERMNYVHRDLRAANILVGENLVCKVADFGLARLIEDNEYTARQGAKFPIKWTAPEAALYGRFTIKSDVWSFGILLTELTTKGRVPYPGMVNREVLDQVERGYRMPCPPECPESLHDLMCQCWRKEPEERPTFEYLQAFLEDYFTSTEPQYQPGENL

[8] = biological target: Tyrosine-protein kinase Lyn (Homo sapiens, UniProt P07948); assay: Inhibition of LYN by HTRF assay
Tyrosine-protein kinase Lyn, sequence (P07948 whole entry): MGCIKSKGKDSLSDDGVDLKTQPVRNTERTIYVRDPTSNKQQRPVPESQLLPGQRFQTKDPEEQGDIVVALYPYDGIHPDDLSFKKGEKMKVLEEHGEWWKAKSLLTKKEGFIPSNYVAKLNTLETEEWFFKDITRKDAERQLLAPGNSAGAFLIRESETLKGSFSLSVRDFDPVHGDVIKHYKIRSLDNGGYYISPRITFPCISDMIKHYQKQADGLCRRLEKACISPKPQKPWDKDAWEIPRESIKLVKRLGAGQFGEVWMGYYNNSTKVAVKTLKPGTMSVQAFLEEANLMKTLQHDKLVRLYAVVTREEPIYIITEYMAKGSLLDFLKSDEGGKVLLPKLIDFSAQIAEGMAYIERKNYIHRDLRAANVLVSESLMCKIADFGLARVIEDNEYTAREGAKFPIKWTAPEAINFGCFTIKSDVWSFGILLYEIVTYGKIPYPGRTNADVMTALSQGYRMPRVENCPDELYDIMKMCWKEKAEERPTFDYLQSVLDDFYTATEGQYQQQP

[9] = Half life in mouse at 1 mg/kg, iv; type: ADME, organism-based; set-up: dose 1 mg/kg, route intravenous; details: in vivo
[10] = Volume of distribution in mouse at 1 mg/kg, iv; type: ADME, organism-based; set-up: dose 1 mg/kg, route intravenous; details: in vivo
[11] = Clearance in mouse at 1 mg/kg, iv; type: ADME, organism-based; set-up: dose 1 mg/kg, route intravenous; details: in vivo
[12] = Oral bioavailability in mouse at 10 mg/kg; type: ADME, organism-based; details: in vivo
[13] = AUC in mouse at 10 mg/kg, po; type: ADME, organism-based; set-up: dose 10 mg/kg, route oral; details: plasma
[14] = system: Mus musculus; assay: Inhibition of estradiol-induced uterine edema in orally dosed BALB/c mouse edema model at 3 mg/kg, po; type: functional
[15] = system: HT-1080; assay: Inhibition of tumor growth in human HT1080 cells xenografted in SCID/Beige mouse at 30 mg/kg/day, bid relative to control; details: HT-1080, read-out: TGI
[16] = biological target: Macrophage colony-stimulating factor 1 receptor (Homo sapiens, UniProt P07333); assay: Inhibition of CSF1R by HTRF assay
[17] = biological target: Vascular endothelial growth factor receptor 1 (Homo sapiens, UniProt P17948); assay: Inhibition of FLT1 by HTRF assay
Vascular endothelial growth factor receptor 1, sequence (P17948 whole entry): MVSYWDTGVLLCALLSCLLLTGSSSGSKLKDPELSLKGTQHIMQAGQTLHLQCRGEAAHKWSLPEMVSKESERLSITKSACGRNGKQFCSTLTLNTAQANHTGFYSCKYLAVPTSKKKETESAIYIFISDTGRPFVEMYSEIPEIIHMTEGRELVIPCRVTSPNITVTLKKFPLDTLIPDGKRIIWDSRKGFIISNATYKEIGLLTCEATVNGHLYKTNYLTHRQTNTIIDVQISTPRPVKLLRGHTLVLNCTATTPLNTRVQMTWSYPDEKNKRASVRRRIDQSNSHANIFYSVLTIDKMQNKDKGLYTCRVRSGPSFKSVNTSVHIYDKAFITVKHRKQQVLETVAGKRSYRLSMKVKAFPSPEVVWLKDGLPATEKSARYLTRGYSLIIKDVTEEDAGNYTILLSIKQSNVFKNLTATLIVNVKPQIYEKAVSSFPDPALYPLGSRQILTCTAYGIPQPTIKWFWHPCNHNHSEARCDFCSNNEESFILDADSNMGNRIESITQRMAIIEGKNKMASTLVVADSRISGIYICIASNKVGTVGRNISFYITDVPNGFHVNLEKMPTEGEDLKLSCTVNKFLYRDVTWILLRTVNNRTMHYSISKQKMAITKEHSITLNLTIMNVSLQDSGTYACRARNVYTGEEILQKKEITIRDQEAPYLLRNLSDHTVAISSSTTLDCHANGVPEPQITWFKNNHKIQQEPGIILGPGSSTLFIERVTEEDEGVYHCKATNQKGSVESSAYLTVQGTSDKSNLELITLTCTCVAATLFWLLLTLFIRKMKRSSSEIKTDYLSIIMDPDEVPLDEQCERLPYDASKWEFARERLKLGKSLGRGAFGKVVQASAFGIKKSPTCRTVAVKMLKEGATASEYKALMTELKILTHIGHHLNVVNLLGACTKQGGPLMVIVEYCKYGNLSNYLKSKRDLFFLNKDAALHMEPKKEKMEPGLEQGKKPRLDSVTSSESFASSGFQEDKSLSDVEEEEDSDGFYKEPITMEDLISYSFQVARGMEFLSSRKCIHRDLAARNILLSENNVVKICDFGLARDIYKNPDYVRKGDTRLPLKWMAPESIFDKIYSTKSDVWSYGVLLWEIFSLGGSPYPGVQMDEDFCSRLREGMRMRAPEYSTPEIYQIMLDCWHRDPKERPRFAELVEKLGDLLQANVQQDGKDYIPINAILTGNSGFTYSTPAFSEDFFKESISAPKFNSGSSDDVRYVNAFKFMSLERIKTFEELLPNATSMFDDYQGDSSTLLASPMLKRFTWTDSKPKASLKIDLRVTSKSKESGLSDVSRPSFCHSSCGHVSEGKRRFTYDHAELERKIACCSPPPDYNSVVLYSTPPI

[18] = Half life in mouse at 3 mg/kg, iv; type: ADME, organism-based; set-up: dose 3 mg/kg, route intravenous; details: in vivo
[19] = Volume of distribution in mouse at 3 mg/kg, iv; type: ADME, organism-based; set-up: dose 3 mg/kg, route intravenous; details: in vivo
[20] = Clearance in mouse at 3 mg/kg, iv; type: ADME, organism-based; set-up: dose 3 mg/kg, route intravenous; details: in vivo
[21] = system: Mus musculus; assay: Inhibition of estradiol-induced uterine edema in orally dosed BALB/c mouse edema model; type: functional; details: po
[22] = biological target: Receptor-type tyrosine-protein kinase FLT3 (Homo sapiens) (UniProt P36888)
Description: Inhibition of FLT3 by HTRF assay

[23] = Inhibition of FGFR by HTRF assay
[24] = system: HT-1080; assay: Inhibition of tumor growth in human HT1080 cells xenografted in SCID/Beige mouse at 10 mg/kg/day, bid relative to control; type: functional; details: read-out: TGI
[25] = AUC (0 to 24 hrs) in mouse plasma at 10 mg/kg/day; type: ADME, organism-based; set-up: time < 24 hr, dose 10 mg/kg/day

Mast/stem cell growth factor receptor Kit, sequence (P10721 whole entry): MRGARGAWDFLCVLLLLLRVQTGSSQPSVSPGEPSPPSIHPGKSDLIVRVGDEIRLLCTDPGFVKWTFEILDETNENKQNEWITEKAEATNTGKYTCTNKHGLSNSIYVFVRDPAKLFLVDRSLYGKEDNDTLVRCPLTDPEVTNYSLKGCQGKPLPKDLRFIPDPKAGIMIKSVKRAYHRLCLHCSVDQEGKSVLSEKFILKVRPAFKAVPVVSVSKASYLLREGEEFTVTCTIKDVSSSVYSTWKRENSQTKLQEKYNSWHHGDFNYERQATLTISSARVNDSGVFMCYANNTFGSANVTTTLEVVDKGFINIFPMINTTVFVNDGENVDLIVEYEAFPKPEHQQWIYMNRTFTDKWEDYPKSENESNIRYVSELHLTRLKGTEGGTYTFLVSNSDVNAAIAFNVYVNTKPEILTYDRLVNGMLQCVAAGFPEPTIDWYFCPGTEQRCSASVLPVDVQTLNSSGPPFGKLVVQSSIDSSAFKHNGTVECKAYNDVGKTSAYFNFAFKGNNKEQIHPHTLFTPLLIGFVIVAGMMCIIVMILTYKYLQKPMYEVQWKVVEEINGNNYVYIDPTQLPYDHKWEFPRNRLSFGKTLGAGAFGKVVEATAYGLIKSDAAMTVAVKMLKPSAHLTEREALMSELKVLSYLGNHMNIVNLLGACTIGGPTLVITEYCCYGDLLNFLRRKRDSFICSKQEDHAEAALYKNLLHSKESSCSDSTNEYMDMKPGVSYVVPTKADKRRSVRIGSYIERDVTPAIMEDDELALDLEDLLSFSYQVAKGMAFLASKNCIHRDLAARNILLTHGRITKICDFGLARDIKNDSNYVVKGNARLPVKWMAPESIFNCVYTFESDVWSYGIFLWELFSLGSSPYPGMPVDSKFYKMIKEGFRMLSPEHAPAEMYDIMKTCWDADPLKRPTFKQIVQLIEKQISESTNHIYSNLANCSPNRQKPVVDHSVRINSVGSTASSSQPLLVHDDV

Work on `Cc1ccc(F)c(NC(=O)Nc2ccc(-c3ccc(F)c4onc(N)c34)cc2)c1` yielded an IC50 [1] of 216 nM, an IC50 [2] of 211 nM and an IC50 [3] of 173 nM.
For `Cc1ccc(F)c(NC(=O)Nc2ccc(-c3cccc4snc(N)c34)cc2)c1`, the IC50 [1] was 790 nM, the IC50 [2] was 628 nM and the IC50 [3] was 1500 nM.
In the case of `Cc1ccc(F)c(NC(=O)Nc2ccc(-c3ccc(OCCN4CCOCC4)c4onc(N)c34)cc2)c1`, the IC50 [1] is reported as 71 nM and the IC50 [3] is reported as 34 nM.
With `COc1ccc(-c2ccc(NC(=O)Nc3cccc(Cl)c3)cc2)c2c(N)noc12` the Activity [4] was “inactive”, the IC50 [5] was 1000 nM and the IC50 [6] was over 50000 nM. It also gave an IC50 [7] of over 50000 nM, an IC50 [8] of over 50000 nM and a half-life [9] of 0.9 h. For the same compound, the Vd [10] was 1.2 L/kg, the clearance [11] was 15.5 mL/min/kg and the bioavailability [12] was 99%. The AUC [13] was 25.8 µM·h, the inhibition in vivo at 3 mg/kg [14] was 90% and the inhibition in vivo at 30 mg/kg/day [15] was 45%. It also gave an IC50 [1] of 72 nM, an IC50 [16] of 40 nM and an IC50 [17] of 38 nM. For the same compound, the IC50 [3] was 30 nM.
With `Nc1noc2cccc(-c3ccc(NC(=O)Nc4cc(C(F)(F)F)ccc4F)cc3)c12` the IC50 [1] was 339 nM.
For `Nc1noc2cccc(-c3ccc(NC(=O)Nc4ccc(F)c(Cl)c4)cc3)c12`, the IC50 [1] was 36 nM and the IC50 [3] was 22 nM.
`Cc1ccc(F)c(NC(=O)Nc2ccc(-c3ccc(OC(F)(F)F)c4onc(N)c34)cc2)c1` showed an IC50 [1] of 294 nM and an IC50 [3] of 58 nM.
Compound `Nc1noc2cccc(-c3ccc(NC(=O)Nc4cccc(C(F)(F)F)c4)cc3)c12` has an IC50 [1] of 114 nM and an IC50 [3] of 64 nM.
`COc1ccc(-c2ccc(NC(=O)Nc3cccc(Br)c3)cc2)c2c(N)noc12` showed a half-life [18] of 1.9 h, a Vd [19] of 3.1 L/kg and a clearance [20] of 18.3 mL/min/kg. The bioavailability [12] was 71%, the AUC [13] was 13.8 µM·h and the ED50 [21] was 1 mg/kg.
For `COc1ccc(NC(=O)Nc2ccc(-c3cccc4onc(N)c34)cc2)cc1`, the IC50 [1] was 5 nM and the Activity [22] was “inactive”.
`Nc1noc2cccc(-c3ccc(NC(=O)Nc4ccccc4)cc3)c12` showed an IC50 [1] of 18 nM.
Work on `Cc1cccc(NC(=O)Nc2ccc(-c3cccc4onc(N)c34)cc2)c1` yielded an IC50 [1] of 12 nM and an IC50 [3] of 14 nM.
In the case of `COc1ccc(-c2ccc(NC(=O)Nc3cccc(C(F)(F)F)c3)cc2)c2c(N)noc12`, the IC50 [4] is reported as 130 nM, the IC50 [5] is reported as 270 nM and the IC50 [23] is reported as 3000 nM. For the same compound, the IC50 [6] was over 50000 nM, the IC50 [7] was over 50000 nM and the IC50 [8] was over 50000 nM. The half-life [9] was 0.9 h, the Vd [10] was 2.2 L/kg and the clearance [11] was 28.3 mL/min/kg. It also gave a bioavailability [12] of 100%, an AUC [13] of 30.6 µM·h and an ED50 [21] of 2 mg/kg. For the same compound, the inhibition in vivo at 10 mg/kg/day [24] was 81%, the AUC at 24 h [25] was 13.2 µM·h and the IC50 [1] was 56 nM. The IC50 [16] was 30 nM, the IC50 [17] was 16 nM and the IC50 [3] was 19 nM.
With `Nc1noc2cccc(-c3ccc(NC(=O)Nc4cccc(Br)c4)cc3)c12` the IC50 [1] was 7 nM and the Activity [22] was “inactive”.
With `Nc1noc2cccc(-c3ccc(NC(=O)Nc4ccc(F)cc4)cc3)c12` the IC50 [1] was 7 nM and the IC50 [3] was 4 nM.
`Nc1noc2cccc(-c3ccc(NC(=O)c4ccccc4)cc3)c12` showed an IC50 [1] of over 12500 nM, an IC50 [2] of over 12500 nM and an IC50 [3] of over 12500 nM.
For `COc1cccc(NC(=O)Nc2ccc(-c3cccc4onc(N)c34)cc2)c1`, the IC50 [1] was 4 nM and the Activity [22] was “inactive”.
With `Nc1noc2cccc(-c3ccc(NC(=O)Nc4ccccc4OC(F)(F)F)cc3)c12` the IC50 [1] was 166 nM and the IC50 [3] was 60 nM.
Compound `Nc1noc2cccc(-c3ccc(NC(=O)Nc4cccc(Cl)c4)cc3)c12` has an IC50 [1] of 10 nM and an IC50 [3] of 6 nM.
In the case of `Nc1noc2cccc(-c3ccc(NC(=O)Nc4ccc(F)c(C(F)(F)F)c4)cc3)c12`, the half-life [18] is reported as 1.2 h, the Vd [19] is reported as 1.4 L/kg and the clearance [20] is reported as 13.2 mL/min/kg. For the same compound, the bioavailability [12] was 100%, the AUC [13] was 33.1 µM·h and the ED50 [21] was 5.4 mg/kg. The inhibition in vivo at 30 mg/kg/day [15] was 63%, the IC50 [1] was 62 nM and the IC50 [3] was 28 nM.
